Measurements taken from patent US20060154896A1, “Phosphorylated dextrans” (priority 2002, published 2006).

Experiments:
[1] = system: mouse spleen cells; assay: Blastogenic activity on mouse spleen cells ([3H]-thymidine uptake, Stimulation Index); type: cell-based
Excerpt: In the preparation of immune cells, specific pathogen free (SPF) BALB/c mice (Japan SLC, Shizuoka, Japan) were used for examination. Five-week old male mice were purchased, and allowed to freely consume distilled water and MR breeder (Nihon Nosan Kogyo (Nosan Co.)), which is experimental feed for mice and rats. Six- to ten-week-old mice were used for the experiments.
BALB/c mice were anesthetized with ether, and then sacrificed by exsanguination. Their spleens were excised and washed with phosphate buffer (PBS-4×S.P; ph 7.3) containing streptomycin and penicillin ([…] and 400 U/ml, respectively) to remove adipose tissue and such. The spleens were well dispersed in gauze, and spleen cells were filtered through the gauze into PBS to prepare a cell suspension. This cell suspension was centrifuged (at 300×g for five minutes at 4° C.). After discarding the supernatant, the cells were re-suspended in RPMI-1640 medium (SIGMA). The suspension was filtered through a steel mesh to remove aggregated cells, and centrifuged again (five minutes at 300×g and 4° C.). After discarding the supernatant, the cells were finally re-suspended in RPMI-1640 containing 2% fetal calf serum (FCS: Biocell Lab., Inc., CA, US). The viable cell count was determined using a trypan blue staining method, and this suspension was used as the spleen cell suspension in the experiments.
The cell suspension was transferred into each well of a 96-well microplate (SUMITOMO BAKELITE CO., LTD. Tokyo, Japan) to give 2×10^5 cells per well. The dextran and five types of phosphorylated dextrans (molecular weights of about 10,000, 40,000, 160,000, 510,000, and 2,000,000) prepared in Example 1 were respectively added to the wells to a concentration of 100 μg/ml. The cells were then cultured in RPMI-1640 (2% FCS) under 5% CO2 at 37° C. for 48 hours. As positive control samples, lipopolysaccharide (LPS: B-cell mitogen, E. coli 0111: B4, SIGMA) or concanavalin A (ConA: T-cell mitogen, SIGMA) were added at a final concentration of 20 μg/ml and 2 μg/ml, respectively. […] TdR incorporated into the lymphocytes was determined using a liquid scintillation counter (LS1801; Beckman Coulter, Tokyo).
The blastogenic activities on lymphocytes were evaluated by calculating Stimulation Indexes (S.I.) from the [^3H] […]
The blastogenic activities of phosphorylated dextrans on mouse spleen cells were measured as described in Example 5, except that phosphorylated dextrans were added at concentrations of 100 ng/ml, 1 μg/ml, 10 μg/ml, 100 μg/ml, or 200 μg/ml, the cells were incubated in RPMI-1640 medium (2% FCS) under 5% CO2 at 37° C. for 48 hours, and methyl-[^3H]-thymidine uptakes were measured. Blastogenic activity was estimated by calculating S.I. values from the radioactivity, compared with a control. […]

[2] = system: B cells; assay: Blastogenic activity on separated B cells (MACS CD45R adsorbed fraction); type: cell-based, mouse; conditions: B cell fraction, 48 hours, FIG. 6
Description: (§1) The mouse spleen cell suspension prepared in Example 4 was washed by centrifugation (at 2,500 rpm for five minutes at 4° C.) with a buffer for cell separation (0.5% BSA, 2 mM EDTA/-PBS). 3×10^7 cells were incubated at 4° C. for 15 minutes with 50 μl of a 20-times diluted biotinylated anti-mouse CD45R antibody (CLTAG Lab, Burlingame, Calif.). The cells were washed by centrifugation with the cell separation buffer (five minutes at 2,500 rpm and 4° C.), and the supernatant was then discarded. 30 μl of ten-fold diluted streptavidin microbeads (Miltenyi Biotec GmbH, Germany) was added to the cells, and the mixture was incubated at 4° C. for 15 minutes. The cells were washed by centrifugation with the cell separation buffer (five minutes at 2,500 rpm and 4° C.), re-suspended in the same buffer, and the suspension was then filtered through a nylon mesh to remove aggregated cells. […]
(§2) The cells thus obtained were collected by centrifugation and re-suspended in RPMI-1640 containing 10% FCS. The blastogenic activity was then determined using the method described above, except that the stimulation by phosphorylated NPS was carried out at a concentration of 100 μg/ml, and the cells were incubated for 48 hours.

[3] = system: T cells; assay: Blastogenic activity on separated T cells (MACS flow-through fraction); type: cell-based, mouse; conditions: T cell fraction, 48 hours, FIG. 6
Description: as §1, §2

Substance | blastogenic activity, S.I. (positive control) ([1]; LPS 20 μg/ml, 48 hours, FIG. 3) | blastogenic activity, S.I. (positive control) ([1]; LPS, FIG. 4 experiment) | activation of B cells (positive control) [2] | blastogenic activity, S.I. (positive control) ([1]; ConA 2 μg/ml, 48 hours, FIG. 3) | blastogenic activity, S.I. (positive control) ([1]; ConA, FIG. 4 experiment) | activation of T cells (positive control) [3]
Lipopolysaccharide | 89.3 | 79.8 | specifically activated |  |  | 
concanavalin A |  |  |  | 189.4 | 247.8 | specifically activated
